Experimental data as given in article PMC12249905, “Substituted Triazole-3,5-Diamine Compounds as Novel Human Topoisomerase III Beta Inhibitors” (International Journal of Molecular Sciences, 2025).

Experiments:
human TOP3B = molecular target: T1, human TOP3B (Homo sapiens, UniProt O95985); test: Assay of inhibition of human TOP3B relaxation activity (chloroquine gel electrophoresis, TDRD3 present); assay type: biochemical; details: for Inhibition of the DNA relaxation activity of human TOP3B: tested at up to 200 µM; for IC50: DNA relaxation, 18 nM TOP3B and TDRD3, supercoiled pBAD/Thio plasmid, 37 °C 1 h
T1 construct: GST (N); 6xHis (C); purchased Genscript (custom production); host or cells: sf9 insect cells (TOP3B); E. coli Rosetta(DE3) (TDRD3, made in house)
T1 sequence (O95985 1-862): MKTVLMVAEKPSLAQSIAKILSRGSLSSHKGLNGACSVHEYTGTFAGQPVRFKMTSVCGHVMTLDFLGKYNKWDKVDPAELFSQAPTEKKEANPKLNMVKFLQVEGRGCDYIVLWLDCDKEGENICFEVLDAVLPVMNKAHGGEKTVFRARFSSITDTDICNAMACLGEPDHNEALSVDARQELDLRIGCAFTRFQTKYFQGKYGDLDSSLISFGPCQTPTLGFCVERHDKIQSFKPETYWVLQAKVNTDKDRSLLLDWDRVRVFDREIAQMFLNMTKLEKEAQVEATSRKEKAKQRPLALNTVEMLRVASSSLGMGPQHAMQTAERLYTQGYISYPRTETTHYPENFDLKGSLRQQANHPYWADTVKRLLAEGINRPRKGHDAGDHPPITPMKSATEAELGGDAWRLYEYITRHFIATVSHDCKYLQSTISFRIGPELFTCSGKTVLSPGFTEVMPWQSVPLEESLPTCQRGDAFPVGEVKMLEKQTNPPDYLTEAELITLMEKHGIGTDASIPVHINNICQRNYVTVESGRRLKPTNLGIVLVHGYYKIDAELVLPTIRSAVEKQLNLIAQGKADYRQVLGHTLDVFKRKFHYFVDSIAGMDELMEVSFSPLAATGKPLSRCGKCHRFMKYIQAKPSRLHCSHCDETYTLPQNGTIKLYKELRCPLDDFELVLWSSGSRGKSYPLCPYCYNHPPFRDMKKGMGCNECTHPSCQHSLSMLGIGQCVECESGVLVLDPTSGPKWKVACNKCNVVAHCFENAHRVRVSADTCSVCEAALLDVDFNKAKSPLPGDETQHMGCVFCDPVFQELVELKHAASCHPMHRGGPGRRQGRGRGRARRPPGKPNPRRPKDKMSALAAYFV
Source text: Human TOP3B protein was obtained through custom production by Genscript. The coding sequence of human TOP3B was custom synthesized by Genscript and cloned into vector pFastBacGST to generate the recombinant baculovirus expressing human TOP3B protein with the N-terminal GST tag and C-terminal 6xHis tag. Following expression in sf9 insect cells, the recombinant TOP3B protein was purified to >95% homogeneity by Genscript using GST column and superdex 200 16/600G chromatography. A buffer containing 20 mM of Tris-HCl (pH 7.5), 750 mM of KCl, 10% glycerol, 1 mM of EDTA, 0.05% NP-40, and 1mM of DTT was used for storage and dilution.
The presence of the TDRD3 protein enhances the relaxation activity of human TOP3B through the direct binding of the proposed TOP3B hinge region for gate opening and closing. The human TDRD3 coding sequence was amplified by PCR from the TDRD3 clone in pEGFP-C1 [45] using a forward primer of 5′-[…]-3′ and a reverse primer of 5′-[…]-3′. The amplified TDRD3 gene was joined with the backbone of the DHFR-His plasmid (from New England BioLab) using the NEB HiFi assembly kit with the forward primer 5′-[…]-3′ and the reverse primer 5′-[…]-3′ so that the TDRD3 gene replaced the DHFR gene. The his-tagged TDRD3 protein was expressed from the T7 promoter in E. coli Rosetta(DE3) cells and purified using the HisPur Ni-NTA spin column from Thermo Fisher according to the manufacturer’s protocol.
Inhibition of the relaxation activity of human TOP3B was carried out in a reaction buffer containing 20 mM of HEPES-KOH, with a pH of 7.5, 1 mM of DTT, 0.1 mg/mL of BSA, and 5 mM of MgCl2. TOP3B and TDRD3 were added at 18 nM to each reaction mix followed by 0.5 μL of DMSO or indicated concentrations of compounds, and lastly by the addition of 500 ng of supercoiled pBAD/Thio plasmid DNA (purified by CsCl gradient centrifugation) for a final reaction volume of 20 μL. After mixing by gentle vortex, the reaction mixtures were spun down and incubated at 37 °C for 1 h. The relaxation reactions were terminated by the addition of 1 μL of 10% SDS and 2 μL of 800 units/mL of proteinase K (New England Biolabs) and incubated at 45 °C for 30 min. Following the addition of 5 μL of stop solution (50 mM of EDTA, 50% glycerol, and 0.5% v/v bromophenol blue), the reaction products were analyzed in a 1% agarose gel with TAE (40 mM of Tris-acetate, pH 8.0, 2 mM of EDTA) buffer containing 5 μg/mL of chloroquine at 25 V (1 V/cm) for 18 h. Gels were washed with TAE buffer for 1 h and 50 mM of NaCl for 1 h to remove the chloroquine, and finally with deionized water for 30 min. Gels were stained for 2 h with 1 μg/mL of SYBR Gold solution (Thermo Fischer Scientific, Waltham, MA, USA). Gels were destained with deionized water for 15 min and photographed over UV light with the AlphaImager system. The amount of the relaxed DNA produced by TOP3B in each reaction was quantified using the AlphaImager software version 1.5.0 to calculate the percentage of inhibition versus the DMSO control.

human TOP1 = molecular target: T2, human TOP1 (Homo sapiens, UniProt P11387); test: Assay of inhibition of human TOP1 relaxation activity (gel electrophoresis); assay type: biochemical; details: DNA relaxation, 1 unit enzyme, supercoiled pBAD/Thio plasmid, 37 °C 30 min
T2 construct: made in house; host or cells: Saccharomyces cerevisiae strain EKY3
T2 sequence (P11387 1-765): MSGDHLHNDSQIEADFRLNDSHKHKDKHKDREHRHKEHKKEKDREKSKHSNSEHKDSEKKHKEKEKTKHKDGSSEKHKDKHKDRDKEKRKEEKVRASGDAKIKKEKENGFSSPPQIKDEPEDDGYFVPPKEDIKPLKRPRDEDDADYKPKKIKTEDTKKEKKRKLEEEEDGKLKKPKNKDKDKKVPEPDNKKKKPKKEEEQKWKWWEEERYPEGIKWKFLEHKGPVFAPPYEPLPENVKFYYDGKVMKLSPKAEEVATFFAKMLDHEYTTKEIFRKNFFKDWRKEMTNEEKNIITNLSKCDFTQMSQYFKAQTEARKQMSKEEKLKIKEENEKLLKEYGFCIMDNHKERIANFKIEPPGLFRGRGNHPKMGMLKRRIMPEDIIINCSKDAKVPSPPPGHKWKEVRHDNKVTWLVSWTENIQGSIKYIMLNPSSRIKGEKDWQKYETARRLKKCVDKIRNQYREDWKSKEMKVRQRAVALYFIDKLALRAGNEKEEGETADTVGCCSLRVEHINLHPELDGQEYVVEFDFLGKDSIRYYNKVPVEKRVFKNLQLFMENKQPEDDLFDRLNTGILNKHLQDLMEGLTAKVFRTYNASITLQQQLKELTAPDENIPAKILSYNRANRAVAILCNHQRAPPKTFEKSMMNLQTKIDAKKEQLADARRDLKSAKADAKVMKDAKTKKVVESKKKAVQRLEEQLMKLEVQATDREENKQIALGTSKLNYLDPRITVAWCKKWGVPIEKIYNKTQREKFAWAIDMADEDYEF
Method: Recombinant human TOP1 was expressed from clone pYES2-TOP1 transformed into Saccharomyces cerevisiae strain EKY3 [46]. Inhibition of TOP1 relaxation activity was assayed as described in a 20 µL reaction containing 200 ng of supercoiled pBAD/Thio plasmid DNA and 1 unit of enzyme in 10 mM of Tris-HCl, with a pH of 8.0, 1 mM of EDTA, 150 mM of NaCl, 0.1 mM of spermidine, 0.1 mg/mL of BSA, and 5% glycerol. The reactions were incubated at 37 °C for 30 min before the addition of 4 µL of stop solution (6% SDS, 0.6% (wv/v)) bromophenol blue and 40% glycerol. Gel electrophoresis for the separation of the supercoiled DNA substrate from the relaxed DNA was conducted in 1% agarose gel with TAE buffer for 20 h at 25 V. The DNA was stained with ethidium bromide for an hour and then soaked in water for 5 min. Gels were photographed over UV light with the AlphaImager system. The amount of the supercoiled DNA substrate remaining in each reaction was quantified using the AlphaImager software to calculate the percentage of inhibition versus the DMSO control.

[1] = Cell viability of human dermal fibroblasts (CellTiter-Blue); assay type: cell-based; details: primary human dermal fibroblasts (HdFa), 100 µM (highest concentration), 24 h exposure, relative to untreated control
Method: Human dermal fibroblasts (HdFa; PCS-210-012™, ATCC, Manassas, VA, USA) were cultured in Dulbecco’s Modified Eagle Medium (DMEM; supplemented with GlutaMAX™ and sodium pyruvate; Gibco, Waltham, MA, USA), containing 10% fetal bovine serum (FBS; Gibco) and 1% penicillin-streptomycin (10,000 U/mL; Gibco). Cells were maintained in T75 tissue culture flasks (Thermo Scientific Nunc™, Roskilde, Denmark) under standard incubation conditions (37 °C, 5% CO2, humidified atmosphere). Upon reaching confluency, cells were harvested and seeded into black-walled, clear-bottom, 96-well plates at a density of 5000 cells/well in 100 µL of complete growth medium. Following overnight incubation, the cells reached approximately 80–90% confluence. […]
After 24 h of compound exposure, 20 µL of CellTiter-Blue® reagent (Promega, WI, USA) was added to each well. Plates were incubated for an additional 2 h at 37 °C, after which the fluorescence of the metabolized resorufin product was measured using a Synergy Multi-Mode Plate Reader (BioTek Instruments, Winooski, VT, USA) at an excitation wavelength of 560 nm and an emission wavelength of 590 nm. Cellular viability in response to the test compounds was expressed as a percentage relative to the untreated control group.(1) Cell viability (%)=Fluorescenceintensityoftreatedcells/Fluorescenceintensityofcontrolcells×[…]

SMILES	Inhibition of the DNA relaxation activity of human TOP3B (human TOP3B)	other results
Cc1cn(-c2cc(NC(=O)c3ccc(C)c(Nc4nccc(-c5cccnc5)n4)c3)cc(C(F)(F)F)c2)cn1 [Nilotinib]	Inhibition was observed only for bemcentinib	
CC(C)C[C@H](N)C(=O)n1nc(Nc2ccccc2/C=C/C(N)=O)nc1N [2710-34-357]		IC50 (human TOP3B): 34.5 µM; IC50 (human TOP1): 31.9 µM
CNC(=O)c1cc(Oc2ccc(NC(=O)Nc3cc(C(C)(C)C)nn3-c3ccc4ncccc4c3)c(F)c2)ccn1 [Rebastinib]	Inhibition was observed only for bemcentinib	
CN1CCN(C2CCN(C(=O)Nc3cc(Oc4ccc(NC(=O)C5(C(=O)Nc6ccc(F)cc6)CC5)c(F)c4)ccn3)CC2)CC1 [Golvatinib]	Inhibition was observed only for bemcentinib	
Cc1cn(-c2cc(NC(=O)c3ccc(C)c(Nc4nccc(-c5cnccn5)n4)c3)cc(C(F)(F)F)c2)cn1 [Radotinib]	Inhibition was observed only for bemcentinib	
Nc1nc(Nc2ccc3c(c2)CC[C@@H](N2CCCC2)CC3)nn1-c1cc2c(nn1)-c1ccccc1CCC2 [Bemcentinib]	Inhibition was observed only for bemcentinib	IC50 (human TOP3B): 34.3 µM; Selectivity for inhibition of TOP3B versus TOP1 (human TOP3B; comparison of IC50 values TOP3B vs TOP1): inhibits TOP3B with greater potency than TOP1; IC50 (human TOP1): 75.8 µM
Cc1cc(Nc2ncnc3ccc(NC4=NC(C)(C)CO4)cc23)ccc1Oc1ccn2ncnc2c1 [Tucatinib]	Inhibition was observed only for bemcentinib	
CC(C)[C@H](N)C(=O)n1nc(Nc2ccccc2/C=C/C(N)=O)nc1N [2710-33-343]		viability at 24 h, 100 µM [1]: ~60%
